Results as given in patent publication US20230024302A1, “2,3,5-TRISUBSTITUTED PYRAZOLO[1,5-A]PYRIMIDINE COMPOUNDS” (Arcus Biosciences, Inc., priority 2019, published 2023).
Like-named read-outs stand apart in the source and are kept apart here.

Assays:
PI3Kγ (p120γ) = biological target: T1, PI3Kγ (p120γ) (Homo sapiens, UniProt P48736); assay: Inhibition of PI3K kinase activity (ADP Glo), PI3Kγ; conditions: read-out: biochemical potency (PI3Kγ IC50)
T1 construct: purchased Promega V1761
Outline: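 Recombinant p120γ (8 nM, 2× stock) was preincubated with compound for 1 h at rt in HEPES pH 7.4, NaCl, MgCl2 and 0.05% BSA. Reaction was started with PIP2 (0.1 mg/ml, 2×) and ATP (50 μM, 2×) and ran 60 min at rt. ADP formed was read by ADP-Glo luminescence, and IC50 came from a 4-parameter fit.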

PI3Kγ = biological target: T2, PI3Kγ (Homo sapiens, UniProt P48736); assay: PI3Kγ cellular assay in THP-1 cells (AKT pS473 AlphaLISA); format: cell-based
T2 construct: host or cells: THP-1
Outline: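 Serum-starved THP-1 cells (1.8×10^5/well, serum-free DMEM) treated with compounds from 4 nM to 30 μM in 2% DMSO, then stimulated and lysed.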

[1] = Table 6, rhMCP-1 stimulated AKT pS473, read-out: cellular potency (PI3Kγ IC50)
[2] = Table 7, rhMCP-1 stimulated AKT pS473, read-out: cellular potency (PI3Kγ IC50)

T1 sequence (P48736 whole entry): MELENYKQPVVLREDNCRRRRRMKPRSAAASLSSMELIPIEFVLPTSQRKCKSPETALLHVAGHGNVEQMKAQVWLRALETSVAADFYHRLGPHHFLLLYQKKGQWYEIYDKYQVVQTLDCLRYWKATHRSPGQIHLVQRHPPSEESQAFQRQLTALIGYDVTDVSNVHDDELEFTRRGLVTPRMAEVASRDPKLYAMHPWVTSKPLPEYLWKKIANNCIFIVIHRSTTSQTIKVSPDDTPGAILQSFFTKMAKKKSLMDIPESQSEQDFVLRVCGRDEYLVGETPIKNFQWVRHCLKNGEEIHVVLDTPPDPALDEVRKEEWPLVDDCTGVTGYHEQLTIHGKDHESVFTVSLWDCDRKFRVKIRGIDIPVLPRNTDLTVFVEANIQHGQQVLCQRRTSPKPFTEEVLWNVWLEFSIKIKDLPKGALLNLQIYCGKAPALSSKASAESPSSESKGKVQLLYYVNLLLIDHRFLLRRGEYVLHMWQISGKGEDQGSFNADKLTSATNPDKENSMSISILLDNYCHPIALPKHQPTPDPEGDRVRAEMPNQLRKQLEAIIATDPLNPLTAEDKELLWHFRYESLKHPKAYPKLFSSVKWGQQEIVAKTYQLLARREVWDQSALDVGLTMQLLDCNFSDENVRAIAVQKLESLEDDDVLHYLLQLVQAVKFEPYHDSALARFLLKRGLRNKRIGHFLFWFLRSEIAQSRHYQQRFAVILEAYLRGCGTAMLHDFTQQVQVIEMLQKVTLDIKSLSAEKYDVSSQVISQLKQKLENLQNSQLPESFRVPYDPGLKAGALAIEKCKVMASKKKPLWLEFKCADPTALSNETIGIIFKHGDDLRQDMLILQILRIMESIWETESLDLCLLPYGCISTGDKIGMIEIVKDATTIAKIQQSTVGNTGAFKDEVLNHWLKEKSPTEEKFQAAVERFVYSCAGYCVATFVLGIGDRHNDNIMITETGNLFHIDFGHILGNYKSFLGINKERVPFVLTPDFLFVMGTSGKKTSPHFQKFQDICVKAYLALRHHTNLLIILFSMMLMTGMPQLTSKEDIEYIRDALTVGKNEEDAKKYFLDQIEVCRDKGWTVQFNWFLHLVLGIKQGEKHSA
T2 sequence (P48736 whole entry): as above

Row | Structure (SMILES) | IC50 (PI3Kγ (p120γ); Table 6, p120γ) [nM] | IC50 (PI3Kγ; [1]) [nM] | IC50 (PI3Kγ (p120γ); Table 7, p120γ) [nM] | IC50 (PI3Kγ; [2]) [nM]
1 | CCc1cc(-c2ccn3nc(N)c(C(=O)NC4CC4)c3n2)cc2c1C(=O)N([C@@H](C)C1CC1)C2 [Example 450] | < 100 | 100 to 1000 |  | 
2 | C[C@@H](C1CC1)N1Cc2cc(-c3ccn4nc(N)c(C(=O)Nc5cccnc5)c4n3)cc(C3CC3)c2C1=O [Example 452] | < 100 | 100 to 1000 |  | 
3 | C[C@@H](C1CC1)N1Cc2cc(-c3ccn4nc(N)c(C(=O)N[C@@H](CO)C5CC5)c4n3)cc(C(C)(C)O)c2C1=O [Example 453] | < 100 | 100 to 1000 |  | 

Second part, the molecule after the results:

Row | IC50 (PI3Kγ (p120γ); Table 6, p120γ) [nM] | IC50 (PI3Kγ; [1]) [nM] | IC50 (PI3Kγ (p120γ); Table 7, p120γ) [nM] | IC50 (PI3Kγ; [2]) [nM] | Structure (SMILES)
4 | < 100 | 100 to 1000 |  |  | C[C@@H](C1CC1)N1Cc2cc(-c3ccn4nc(N)c(C(=O)NC5CC5)c4n3)cc(C#N)c2C1=O [Example 451]
5 |  |  | < 100 | > 1000 | C[C@@H](C1CC1)N1Cc2cc(-c3ccn4nc(N)c(C(=O)N[C@@H](CO)C5CC5)c4n3)cnc2C1=O [Example 454]
6 |  |  | < 100 | 100 to 1000 | C[C@@H](C1CC1)N1Cc2cc(-c3ccn4nc(N)c(C(=O)NC5CC5)c4n3)cnc2C1=O [Example 455]
